B1: IRF3: interferon Regulatory Factor 3, over-expressed from lentivector (protein, UniProt Q14653 1-427, looked up)
Interferon regulatory factor 3: MGTPKPRILPWLVSQLDLGQLEGVAWVNKSRTRFRIPWKHGLRQDAQQEDFGIFQAWAEATGAYVPGRDKPDLPTWKRNFRSALNRKEGLRLAEDRSKDPHDPHKIYEFVNSGVGDFSQPDTSPDTNGGGSTSDTQEDILDELLGNMVLAPLPDPGPPSLAVAPEPCPQPLRSPSLDNPTPFPNLGPSENPLKRLLVPGEEWEFEVTAFYRGRQVFQQTISCPEGLRLVGSEVGDRTLPGWPVTLPDPGMSLTDRGVMSYVRHVLSCLGGGLALWRAGQWLWAQRLGHCHTYWAVSEELLPNSGHGPDGEVPKDKEGGVFDLGPFIVDLITFTEGSGRSPRYALWFCVGESWPQDQPWTKRLVMVKVVPTCLRALVEMARVGGASSLENTVDLHISNSHPLSLTSDQYKAYLQDLVEGMDFQGPGES

Legend:
Type in all cases: cell-based, human
[1] = system: STING, TBK1, IRF3, RELA, IRF7; test: Western blot of key signaling proteins involved in STING signaling
Protocol: 0.5 million cells were lysed for 30 minutes on ice in 50 μl RIPA buffer (50 mM Tris HCl, 150 mM NaCl, 0.1% SDS, 0.5% DOC, 1% NP-40) with Protease inhibitor (Roche #1187358001). To evaluate, phospho-proteins 50 mM NaF and 1 mM sodium orthovanadate were added to the lysis buffer. Protein lysates were cleared by centrifugation at 12,000 g for 10 to 12 minutes at 4° C. 10 μl of 6× Laemmli buffer (fisher scientific #J61337) was added to 50 μl protein lysates and samples were boiled at 95° C. for 15 minutes. Protein samples were resolved on 4%-20% Biorad precast SDS-PAGE gels (#5671125) and transferred onto PVDF membranes (BioRad #1704157). Membranes were blocked in 5% non-fat dry milk in PBS 0.1% tween or in TBS 5% BSA 0.1% Tween to detect phosphorylated proteins. Primary antibodies were used at 1:1000:phospho-STING (clone-D7C3S), STING (clone-D2P2F), serine 172 phospho-TBK1 (clone-D52C2), TBK1 (clone-D11B4), serine 396 phospho IRF3 (clone-D6O1M), IRF3 (clone-D83B9), RELA (clone-C22B4), IRF7 (clone-12G9A36), cGAS (clone-D1 D3G), Actin (clone-C4), Sendai viral proteins (Biozol #MBL-PD029). Secondary anti-rabbit or anti-mouse antibody were used at 1:10,000 (santa cruz #sc-2357, #sc-516102). ECL signal (Biorad #1705061 and #1705062) was recorded on a ChemiDoc Touch Biorad Imager. Data was analyzed and quantified with Image Lab software (Biorad). In figures, dotted lines indicate reordering of lanes from a single original membrane for visualization purpose.

CD19+ mKate2+A549 cells = test: CAR-T tumor spheroid killing assay
Protocol: CD19+ mKate2+A549 cells were produced by lentiviral transduction using pCDH-CMV-CD19 puro and ILV-EF1a-mKate-9-X01 (Flash therapeutics) lentivectors. 1,000 cells were plated 4 days prior to co-culture in low-cluster 96 well plates (Costar #7007) and allowed to form spheroids in DMEM 10% FBS 5% PS. Total CD3+ T cells were isolated by negative selection from PBMCs (Stemcell #17951) and stimulated with Dynabeads at a ratio of 1:3 (beads:cell). Cells were cultured at 1 million per ml in X-VIVO 15 with 5% PS, 5% decomplemented human serum (Sigma) and 50 μM 2-mercaptoethanol (GIBCO #31350-010). 24 hours following TCR stimulation 100,000 cells in 100 μl were co-transduced with 100 μl of lentivector viral particles (pTRIP-SFFV-GFP or pTRIP-SFFV-GFPRELAK5R) combined with the CAR lentivirus (rLV.EFA.19BBz, Flash therapeutics) at a multiplicity of infection (MOI) of 10 (corresponding usually to less than 1 μl). Spinoculation was carried out at 1200 g for 2 hours at 25° C. Cells were expanded for 48 hours with fresh media and 300 U/ml IL-2. 3 days following transduction T cells were stained with CD19 CAR detection reagent (miltenyi 130-115-965) for 15 minutes at 4° C., washed twice and subsequently with secondary antibody (invitrogen #S21374) for 30 minutes at 4° C. Cells were fixed and acquired on a FACSVerse (BD). The next day, Dynabeads were removed by magnetic separation and 250, 500 or 1,000 CAR+ cells were added per well of A549 spheroids in quadruplicates. Plates were then placed in an IncuCyteS3 and images were acquired using a 10× objective ([…]/pixel) every 3 hours for 5 to 6 days. Images were analysed using the IncuCyte S3 software. At the end of the culture, supernatants were harvested and assayed for IFN concentrations.

cGAS = cGAS localization by confocal microscopy in CD4+ T cells; conditions: activated CD4+ T cells overexpressing IRF3 or RELA K5R, FIG. 5D, 5E
Protocol: 4 to 5 days following transduction, 500,000 cells were plated on 0.1% poly-L lysine in water (Sigma #8920) coated coverslips and left for 30 minutes to attach. Cells were fixed in PBS 4% paraformaldehyde for 20 minutes at room temperature (RT). Coverslips were washed twice in PBS and quenched with 500 μl of freshly prepared PBS Glycine (375 mg Glycine in 50 mL of PBS) for 10 minutes at room temperature. […] Coverslips were incubated with primary antibody against cGAS (clone D1 D3G) or isotype control (clone DA1E) at a concentration of 0.085 μg/ml in PBS 0.2% BSA 0.05% saponin and left overnight at 4° C. in a moist chamber. Coverslips were washed 5 times with PBS 0.2% BSA 0.05% saponin and incubated in secondary antibody goat anti-Rabbit IgG at 1:400 (Invitrogen #A21246) for 45 minutes at RT. Coverslips were washed 5 times with PBS 0.2% BSA 0.05% saponin, rinsed in water and mounted on a glass slide using 10 μl fluoromount-G with DAPI (Invitrogen #00-4959-520). Glass slides were allowed to dry in a 37° C. chamber for 30 minutes and stored at 4° C. Images were acquired on a Leica Dml8 inverted microscope equipped with an SP8 confocal unit using a 40× (1.3 NA) oil objective. Image analysis was performed using Fiji software^77. […] Average cGAS and GFP intensities were measured in the whole cell, the nuclei and the cytosol (defined by the whole cell excluding the nuclear region).

[2] = system: IFNL1 and IFNB transcripts; test: RT-qPCR gene expression analysis in CD4+ T cells; conditions: IRF3 over-expression in CD4+ T cells, data not shown
Protocol: RNA was extracted from 0.4-1 million cells using the Nucleospin RNA II kits (Macherey-Nagel #740955.50). cDNA was synthesized using random primers (invitrogen #48190-011) from 0.1 μg RNA using Superscript III Reverse transcriptase (fisher scientific #18080044). Real-time qPCR (RT-qPCR) was carried out in 20 μl reactions using SYBR Green I Master (Roche #4887352001). Primers used were as follows: […]

Row | Molecule | endogenous RELA expression ([1]; overexpression in CD4+ T cells and MDDC, FIG. 2C) | IFNL1 at the end of co-culture (CD19+ mKate2+A549 cells; 6 days co-culture, all dilutions of CART and RELA K5R cells) | tumor growth with lower numbers of CAR T cells (CD19+ mKate2+A549 cells; FIG. 6F, left panel) | tumor spheroid size / elimination of tumor cells (CD19+ mKate2+A549 cells; co-culture 5-6 days, CAR-positive cell numbers normalized, FIG. 6E, 6F) | proliferation rates as cause of improved killing capacity (CD19+ mKate2+A549 cells; data not shown) | cGAS localization (predominantly nuclear) (cGAS) | phospho-IRF3 levels in response to cGAMP ([1]; IRF3 over-expression, equivalent in CD4+ T cells and MDDC, FIG. 3C) | IFNL1 and IFNB transcripts in response to cGAMP [2]
1 | RELA K5R: RELA mutant converting five lysine residues (K122, K123, K310, K314, K315) to arginine, expressed from lentivector | no impact | detected | delay of tumor growth was also observed | significantly more efficiently eliminated | not due to increased proliferation rates | remained unchanged |  | 
2 | B1 |  |  |  |  |  | remained unchanged | massive increase | increased
